Data published in patent US11060153B2, “Fluorescence amplification method for forward genetic discovery of factors in human mRNA degradation” (Yale University, priority 2016, dated 2021).

Key:
human NMD [1] = assay: CRISPR-based forward genetic screen of the GeCKO-LtCRISPR sgRNA library in "green" Fireworks cells (FACS enrichment rounds, deep sequencing of sgRNAs); format: cell-based; conditions: for sgRNA abundance (%): deep sequencing reads for the sgRNA in the enriched cell population / all reads x 100, round 2, "green" Fireworks cells; for sgRNA enrichment (2nd round): reads in the enriched cell population / reads in total cells at the beginning of the 2nd round, measure of increased PTC(+) reporter fluorescence
Experimental: 1.8×10^8 (6×15 cm plates) “green” Fireworks cells were lentivirally transduced with the blasticidin-resistant GeCKO-LtCRISPR viral library (Shalem et al., Science 2014, 343:84-87) using 4.0 μm/ml of polybrene and propagated for 8-9 days in DMEM media supplemented with 10% FBS and 120 μm/ml hygromycin, 0.3 μg/ml puromycin and 3.0 μm/ml blasticidin. NMD-deficient cell populations (2×10^5 cells) were isolated from 4×10^8 transduced cells using a Bio-Rad S3e cell sorter (100 μm nozzle) and their genomic DNA was phenol-extracted. sgRNAs pools were PCR-amplified using RandomF (5′-[…] AACACCG-3′) (SEQ ID NO: 6) and RandomR (5′-[…] TAAAAC-3′) (SEQ ID NO: 7) primers and Gibson-cloned into the BsmBI-inearized LentiCRISPR (Shalem et al., Science 2014, 343:84-87) vector to obtain a lentiviral library (represented by 1.5×10^8 independent transformants) for the next enrichment round (FIG. 5C). Three rounds of GeCKO Lt-CRISPR library enrichment were conducted; 1.4×10^8 and 1.2×10^8 cells were sorted in the 2nd and 3rd rounds, respectively. sgRNAs obtained from the 2nd round were deep-sequenced and ranked (Table 1) according to their (i) overall abundance in the enriched sgRNA pool and (ii) enrichment over the starting sgRNA population in this round (since successful enrichment increases both of these numbers).
The Fireworks system was tested with the CRIPR-based knockout screening using the lentiviral GeCKO-lentiCRISPR sgRNA library (Shalem et al., Science 2014, 343:84-87), which contains 64,751 sgRNAs targeting 18,080 human genes. Ease of amplification of chromosomally-integrated sgRNAs by PCR allows multiple rounds of sgRNA library enrichment (FIG. 5C) as sgRNAs are iteratively re-transduced into the original Fireworks cell line after the each round of FACS selection in a SELEX-like (Tuerk and Gold, Science 1990, 249:505-510) manner. Fireworks-driven FACS throughput permits completion of one FACS cycle of genome-wide GeCKO library screening with nearly 800-fold library coverage in less than one hour. […] Importantly, sgRNA-specific effects are amplified, whereas cell-specific fluorescence noise is completely reset at the beginning of each sgRNA enrichment round (FIG. 5C), effectively eliminating false-positives arising from spontaneous and lentiviral insertion-induced (and therefore sgRNA-independent) mutations affecting reporters or the NMD pathway. An increase in the population of cells with a defect in NMD becomes evident during FACS rounds 2 and 3 of sgRNA library enrichment, as shown in FIG. 5D for the GeCKO-lentiCRISPR (Shalem et al., Science 2014, 343:84-87) library in the “green” Fireworks cell line. Here, sorting gates were chosen so as to collect no more than 0.16% of the negative cell population.
The pool of sgRNAs isolated from round 2 (FIG. 5C, 5D) of NMD-deficient population enrichment was deep sequenced to determine (i) the overall abundance of each sgRNA in the enriched pool and (ii) the enrichment factor for each surviving sgRNA over the starting sgRNA pool at this round. Here, the sgRNA enrichment factor serves as a measure of the increased fluorescence of the PTC(+) Fireworks reporter achieved by that sgRNA. The top 24 most abundant sgRNAs (of 64,751 sgRNAs originally present in the GeCKO library), which attained enrichment scores higher than 10, are listed in Table 1 along with their intended (Shalem et al., Science 2014, 343:84-87) gene targets.

human NMD [2] = assay: FACS analysis of green fluorescence of the PTC(+) GFP reporter in the "red" Fireworks cell line after NMD inhibition; format: cell-based; conditions: FIG. 7B
Source text: Sixteen of the most abundant individual sgRNAs (Table 1), whose enrichment scores in the 2nd round exceeded 10.0, were individually cloned into linearized Lt-CRISPR vector and lentivirally transduced into the “green” Fireworks cell line. Resulting cells were propagated for 11 days (or 21 days for AVEN sgRNA) and FACS-analyzed to observe an increase in […] fluorescence of the PTC(+) Fireworks reporter. Indeed, the vast majority of sgRNAs reproduced the shift when tested individually. RPS8 and AVEN were targeted with shRNAs (sh22: 5′[…] GTTTTTTG3′ (SEQ ID NO: 8) and sh01: 5′[…] CTTTTTTG3′ (SEQ ID NO: 9) for RPS8 and AVEN, respectively) cloned into the pLKO.1 vector (Moffat et al., Cell 2006, 124:1283-1298) that was used to transduce “green” and “red” Fireworks cells followed by FACS-analysis to observe effects of mRNA knockdown on fluorescence of the PTC(+) reporters.
The Fireworks approach provides the ability to perform forward genetic screens for human NMD factors at the speed of a FACS sorter. As designed, orthogonal Fireworks cell lines respond as expected to the introduction of a stop codon (PTC39) (Zhang et al., RNA 1998, 4:801-815) into the β-globin sequence by a 7- to 9-fold reduction in the reporter's fluorescence (FIGS. 1C, 1D and 2C). PTC39, which is upstream of the last intron in the β-globin pre-mRNA, induces NMD of the Fireworks reporter mRNA. […]

Substance | sgRNA abundance (%) (human NMD [1]) | sgRNA enrichment (2nd round) (human NMD [1]) | green fluorescence of the "red" Fireworks cell line after shRNA transduction (human NMD [2])
30 (TCACATCGGCAGCCACCCGT; expressed or natural sequence) [compound 30] | 0.043 | 30.7 | –
27 (GAAAGACTGAGGAGCTGCTG; expressed or natural sequence) [compound 27] | 0.062 | 38.0 | –
26 (TTAGCATCAGCTACTGCCAG; expressed or natural sequence) [compound 26] | 0.076 | 14.2 | –
21 (GGTACCTTCACTGGAGCCAC; expressed or natural sequence) [compound 21] | 0.132 | 16.1 | –
18 (TGAGCACATACTCTTCACAC; expressed or natural sequence) [compound 18] | 0.180 | 102.2 | –
28 (TTCAAACTAGTAAGCAACAC; expressed or natural sequence) [compound 28] | 0.054 | 18.4 | –
29 (TAAGTTGTCAGAAAACATGA; expressed or natural sequence) [compound 29] | 0.054 | 17.1 | –
13 (AGTGTCCTCCTTAGCTCTGC; expressed or natural sequence) [compound 13] | 0.440 | 33.8 | –
19 (CCGTGACATCACAGACCCGT; expressed or natural sequence) [compound 19] | 0.176 | 21.2 | –
14 (GTTCTCTGATAATCAGAATG; expressed or natural sequence) [compound 14] | 0.439 | 14.7 | –
12 (AGTGTCCTCCTTAGCTCTGC; expressed or natural sequence) [compound 12] | 0.872 | 118.7 | –
17 (CTATGAGGGGGTCAGTGACA; expressed or natural sequence) [compound 17] | 0.232 | 18.3 | –
31 (GCGCCCAGCTGCCAACACCA; expressed or natural sequence) [compound 31] | 0.036 | 53.9 | –
22 (TATGTCTTACCAGAAGCTGC; expressed or natural sequence) [compound 22] | 0.132 | 23.3 | –
33 (TACCTATGTGCGTCAGCAGC; expressed or natural sequence) [compound 33] | 0.023 | 49.5 | –
32 (AGCCCATAATGTACCAGTGC; expressed or natural sequence) [compound 32] | 0.033 | 14.4 | –
15 (ACGCACCTGGTTGCTGGTAT; expressed or natural sequence) [compound 15] | 0.265 | 54.7 | –
25 (TGCTTTGTGTTTCTTTACAC; expressed or natural sequence) [compound 25] | 0.083 | 17.0 | –
20 (CGCATTGAAAACGTTTGCCG; expressed or natural sequence) [compound 20] | 0.153 | 18.4 | –
CCGGCCGTGCCCTGAGGTTGGACGTCTCGAGACGTCCAACCTCAGGGCACG GTTTTTTG (guide CCGGCCGTGCCCTGAGGTTGGACGTCTCGAGACGTCCAACCTCAGGGCACGGTTTTTTG; expressed or natural sequence) [RPS8-targeting shRNA, shRNA targeting RPS8 cloned into the pLKO.1 vector] | – | – | increase in green fluorescence
16 (GGATGACCAAGACGACATCA; expressed or natural sequence) [compound 16] | 0.262 | 18.3 | –
23 (CTCAACCGATTCCTTAGACG; expressed or natural sequence) [compound 23] | 0.125 | 19.5 | –
24 (TCACGCTTCACGCTGACAGT; expressed or natural sequence) [compound 24] | 0.083 | 80.0 | –
10 (TGATTACGTCCTCCACCTCG; expressed or natural sequence) [compound 10] | 1.081 | 47.0 | –
11 (AGGTCCACTCACCATTGGAG; expressed or natural sequence) [compound 11] | 0.888 | 113.9 | –
